Data on 10 compounds can be found in patent US10093660B2, “Sulfoximine substituted quinazolines for pharmaceutical compositions” (EVOTEC INTERNATIONAL GMBH, priority 2013, dated 2018).

Experiment [1] has as its system MNK2 (MNK2a or MNK2b) or MNK1. Conditions: cell culture cells transfected with MNK2 (MNK2a or MNK2b) or MNK1; cited from earlier work.
The target in a further experiment is MNK2a (Homo sapiens (Human), UniProt Q9HBH9). The experiment is described as follows: MNK2a in vitro kinase assay (Assay 2), ADP-Glo. The class given is biochemical. The settings on record: assay 2; read-out: MNK2 IC50. From the text:
B. MNK2a In Vitro Kinase Assay (Assay 2)
On the technique in general: ADP-Glo first removes unused ATP, then detects ADP through luciferase.

For a further experiment, the target named is MNK1a (Homo sapiens (Human), UniProt Q9BUB5). The experiment is described as follows: MNK1 in vitro kinase assay (Assay 3), Z'-LYTE. The class given is biochemical. Conditions: for inhibition at 1 µM: compound concentration of 1 μM, read-out: MNK1 % INH.
Sequence of MNK1a (Q9BUB5 other isoform, or with tags, fused parts or gaps): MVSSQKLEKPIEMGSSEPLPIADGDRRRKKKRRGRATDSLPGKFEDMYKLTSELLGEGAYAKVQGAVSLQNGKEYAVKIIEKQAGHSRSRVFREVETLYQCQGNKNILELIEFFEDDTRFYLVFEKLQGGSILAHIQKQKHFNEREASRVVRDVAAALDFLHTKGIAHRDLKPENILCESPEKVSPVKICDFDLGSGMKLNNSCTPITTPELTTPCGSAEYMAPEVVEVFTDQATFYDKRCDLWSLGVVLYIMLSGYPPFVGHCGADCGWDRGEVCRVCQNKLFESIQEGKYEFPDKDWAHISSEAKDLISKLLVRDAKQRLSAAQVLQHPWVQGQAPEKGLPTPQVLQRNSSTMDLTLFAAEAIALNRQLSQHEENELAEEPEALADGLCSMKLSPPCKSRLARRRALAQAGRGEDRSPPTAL

Molecules are shown by their SMILES.

Sequence of MNK2a (Q9HBH9 whole entry): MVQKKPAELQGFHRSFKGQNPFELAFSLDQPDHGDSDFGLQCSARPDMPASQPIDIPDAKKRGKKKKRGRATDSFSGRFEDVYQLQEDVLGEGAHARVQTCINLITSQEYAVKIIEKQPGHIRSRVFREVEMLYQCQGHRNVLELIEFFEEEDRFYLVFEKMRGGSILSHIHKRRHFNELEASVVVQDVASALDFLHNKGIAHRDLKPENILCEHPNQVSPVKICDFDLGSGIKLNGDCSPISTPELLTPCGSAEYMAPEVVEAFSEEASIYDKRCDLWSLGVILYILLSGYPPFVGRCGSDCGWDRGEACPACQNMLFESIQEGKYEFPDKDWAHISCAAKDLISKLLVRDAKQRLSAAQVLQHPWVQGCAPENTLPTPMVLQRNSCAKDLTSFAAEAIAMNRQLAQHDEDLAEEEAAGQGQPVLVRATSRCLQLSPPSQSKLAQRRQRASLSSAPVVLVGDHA

Turning to `Nc1ncnc2n[nH]c(Nc3ccc(F)cc3)c12` [CGP57380], the “reduction of phosphorylated eIF4E” value in experiment [1] was “strong reduction of phosphorylated eIF4E”.

In general, IC50 refers to the concentration that gives 50% inhibition. `COc1cc(N=S(C)(=O)C(C)(C)C)cc2ncnc(Nc3ccc(F)cc3O[C@H]3COC[C@@H]3O)c12` (stereo partly shown) [Example 9.18]: the IC50 at MNK2a was determined as 8 nM. Also, at MNK1a, the inhibition at 1 µM was found to be 97%.

For the compound `COc1cc(N=S2(=O)CCC(C)C2)cc2ncnc(Nc3ccc(F)cc3O[C@H]3COC[C@@H]3O)c12` (stereo partly shown) [Example 9.24], the IC50 at MNK2a was 4 nM. For the same compound, the inhibition at 1 µM on MNK1a was 97%.

`COc1cc(N=S2(=O)CCCC2)cc2ncnc(Nc3ccc(F)cc3O[C@H]3COC[C@@H]3O)c12` [Example 9.29]: on MNK2a, the IC50 stood at 3 nM. Also, on MNK1a, the inhibition at 1 µM was determined as 94%.

As for `CO[C@@H]1CN(C)C[C@H]1Oc1cc(F)ccc1Nc1ncnc2cc(N=S(C)(C)=O)cc(C)c12` [Example 11.1], the IC50 on MNK2a amounted to 54 nM. The inhibition at 1 µM at MNK1a is 44%.

`CO[C@@H]1CN(C)C[C@H]1Oc1cc(F)ccc1Nc1ncnc2cc(N=S3(=O)CCCC3)cc(C)c12` [Example 11.2]: on MNK2a, the IC50 is 31 nM. Further, the inhibition at 1 µM on MNK1a came to 75%.

As for `CO[C@@H]1CN(C)C[C@H]1Oc1ncccc1Nc1ncnc2cc(N=S3(=O)CCCC3)cc(C)c12` [Example 11.3], the IC50 at MNK2a amounted to 12 nM. The inhibition at 1 µM on MNK1a stood at 87%.

For the compound `CO[C@@H]1CN(C)C[C@H]1Oc1ncccc1Nc1ncnc2cc(N=S(C)(C)=O)cc(C)c12` [Example 11.4], the IC50 on MNK2a was 59 nM. Further, the inhibition at 1 µM at MNK1a was 56%.

As for `Cc1cc(N=S2(=O)CCCC2)cc2ncnc(Nc3ccc(F)cc3O[C@@H]3COC[C@@H]3OCc3ccccc3)c12` [Example 13.3], the IC50 on MNK2a was 15 nM. The inhibition at 1 µM at MNK1a was 79%.

With `CO[C@@H]1COC[C@@H]1Oc1cc(F)ccc1Nc1ncnc2cc(N=S(C)(C)=O)cc(C)c12` [Example 14.8], the IC50 worked out at 1 nM at MNK2a and 80 nM against MNK1a.
